The text below walks through data of patent US20040235939A1, “Synthesis of peloruside a and analogs thereof for use as antitumor agents” (priority 2003, published 2004).

Assay [1] relates to various cultured human tumor cell lines. The experiment in a line: Proliferation of a panel of tumor cell lines. The assay is classed as cell-based. Conditions: panel: colon, pancreas, melanoma, ovarian, renal, liver, lung, breast, prostate. How it is done: (§1) Cells were treated on Days 1, 3, 5, and 7 with 5 μL of media, vehicle, or drug. Peloruside A was resuspended in 0.1% DMSO and added to wells to a final concentration of 0.01, 0.1, 1, 10 or 100 nM. Taxol® (Sigma-Aldrich) was resuspended in 0.1% ethanol and added to cells to a final concentration of 0.1, 1, 10, 100, or 1000 nM.
(§2) The amount of surviving cells was measured using the sulforhodamine B (SRB) assay as previously described (Skehan et al., New colorimetric cytotoxicity assay for anticancer-drug screening. J. Natl. Cancer Inst., 1990. 82(13): p. 1107-12). Cells were fixed on Days 5, 7, and 9 (representing 4, 6, and 8 days of exposure to drug or control, respectively) with 50% (w/v) trichloroacetic acid for 1 hour at 4° C., rinsed thoroughly with water, and dried overnight. The dried cells were stained with 4% sulforhodamine B in 1% acetic acid, rinsed thoroughly and dried overnight. The bound dye was resuspended in 10 mM Tris and the absorbance was read at 492 nm. Percent growth inhibition (GI) was calculated as follows: %GI=(1−(absorbance sample/absorbance vehicle))×100. The absorbance value for each drug concentration and control represents the average of 6 replicates. The %GI was plotted against the log[drug] to generate the growth curves. The concentration of drug required to inhibit growth by 50% (GI50) was calculated for each time point.

The subject of the next assay is 1A9 cells. The assay is described as follows: Cell Titer-Glo cell viability, parent 1A9 cells. The assay is classed as cell-based, human. Conditions: parental 1A9 cells, 48 hours. How it is done:
These cell lines have specific amino acid mutations in tubulin that prevent Taxol®-binding. […] Synthetic (+)-Peloruside A was used for the present example.
1A9, ptx10 and ptx22 cells were plated in 96-well plates to approximately 50% confluency. On the next day, Taxol® or Peloruside A was added to each well and incubated for 48 hours. A final concentration of 1, 2, 3, 4, 5, 8, 10, 20, 30, 50, 100, 300, 500, or 1000 nM of Taxol® was used. A final concentration of 10, 20, 30, 40, 50 or 70 nM of Peloruside A was used. Cell viability was measured using the Cell Titer-Glo Luminescent Cell Viability Assay (Promega). FIGS. 80-82 show bar graphs of cell viability at various concentrations of Peloruside A and Taxol®.

Another assay relates to CAKI-1. The assay is described as follows: SRB cytotoxicity assay, CAKI-1. The assay is classed as cell-based. Conditions: Homo sapiens. How it is done:
as §1, §2

The subject of assay [2] is Tubulin, purified from bovine brains. The experiment in a line: Tubulin polymerization in vitro. The assay is classed as biochemical. How it is done: Tubulin, purified from bovine brains and prepared in PEM-buffer (80 mM PIPES, 0.5 mM MgCl2, 1 mM EGTA, pH 6.9) was thawed under vacuum on ice. Tubulin was incubated at 37° C. until almost melted and resuspended to a final concentration of 2 mg/ml and placed on ice. Peloruside A or Taxol® was added into transparent 96-well plates (Coming Incorp. Costar) and placed on ice. GTP (Sigma) was added to a final concentration of 1 mM. The 96 well plate was warmed to 37° C. and 120 μl of tubulin solution was added into each well. The absorbance of the reaction at 340 nm over time (each 40-50 sec.) was measured on the spectrophotometer TECAN SPECTRAFluor Plus. Peloruside A or Taxol® was added to the tubulin at a final concentration of 5 or 10 μM.

In the next assay the test system is NCI-H460. The assay is described as follows: SRB cytotoxicity assay, NCI-H460. The assay is classed as cell-based. Conditions: Homo sapiens. How it is done:
as §1, §2
Background: In SRB staining, fixed cells bind dye roughly in proportion to their protein.

Where two headings read alike, the source gives them in different places.

One may read the GI50 as the concentration at which growth is held to half of that of the control. Regarding `CC[C@H](/C=C(/C)C1C[C@@H](OC)CC(O)C(C)(C)C2(O)OC(C[C@@H](OC)C2O)C[C@@H](OC)[C@H](O)C(=O)O1)CO` (single isomer, unassigned; (+)) [Peloruside A, (+)-Peloruside A], the “inhibition of proliferation of tumor cell lines” value in assay [1] was “inhibited proliferation”; in assay [1] (listed as ent-40), “did inhibit the growth”. Further, in the assay with 1A9 cells, the “inhibition of cell growth (antimitotic activity)” value is “potent antimitotic activity”. Also, the GI50 came to 12.5 nM in the assay on CAKI-1 (CAKI-1, 96 h); 3.97 nM with CAKI-1 (CAKI-1, 144 h); 3 nM in the assay with CAKI-1 (CAKI-1, 192 h); 8.27 nM with NCI-H460 (NCI-H460, 96 h); 5.38 nM with NCI-H460 (NCI-H460, 144 h); 4.77 nM with NCI-H460 (NCI-H460, 192 h). Also, the “polymerization of tubulin dimers into microtubule polymers (microtubule-stabilizing activity)” value in assay [2] is “did polymerize tubulin dimers into microtubule polymers”. Further, in assay [2] (5 or 10 μM, 37° C., absorbance at 340 nm), the tubulin stabilization activity result is “potent tubulin stabilization activity”.

In the case of `CC(=O)O[C@H]1C(=O)[C@@]2(C)[C@H]([C@H](OC(=O)c3ccccc3)[C@]3(O)C[C@H](OC(=O)[C@H](O)[C@@H](NC(=O)c4ccccc4)c4ccccc4)C(C)=C1C3(C)C)[C@]1(OC(C)=O)CO[C@@H]1C[C@@H]2O` [Paclitaxel, paclitaxel, reference compound], the GI50 came to 4.52 nM with CAKI-1 (CAKI-1, 96 h, CAK1-1, Renal, 4 Days, read-out: GI50); 1.21 nM with CAKI-1 (CAKI-1, 144 h, CAK1-1, Renal, 6 Days, read-out: GI50); 1.17 nM with CAKI-1 (CAKI-1, 192 h, CAK1-1, Renal, 8 Days, read-out: GI50); 0.25 nM with NCI-H460 (NCI-H460, 96 h, NCl-H460, Lung, 4 Days, read-out: GI50); 0.57 nM with NCI-H460 (NCI-H460, 144 h, NCl-H460, Lung, 6 Days, read-out: GI50); 0.56 nM in the assay with NCI-H460 (NCI-H460, 192 h, NCl-H460, Lung, 8 Days, read-out: GI50).
